The source of these data is PubChem BioAssay AID330 (DTP/NCI, 2004).

SMILES strings stand for the structures. Several values for one entry are separate records, joined by “and”; a condition that tells them apart may be missing. Equal values may be shown once. Inconclusive results and toxic doses are left out.

The assay concerns P388 leukemia ip, CD2F1 mice, survival T/C. In words: NCI In Vivo Anticancer Drug Screen. Data for tumor model P388 Leukemia (intraperitoneal) in CD2F1 (CDF1) mice. The note with it: endpoint: median survival time, higher = longer survival. A digest of the protocol:
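Mice carrying the transplanted tumor received test compound or vehicle. Survival was recorded in each group, and the value is the treated-group measurement divided by that of the vehicle-treated control group.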

Setting [1] is: dose: 100.0 mg/kg/injection, schedule: Q01DX001 (ip), vehicle: saline with Tween-80.
Setting [2] is: dose: 200.0 mg/kg/injection, schedule: Q01DX001 (ip), vehicle: saline with Tween-80.
[3] abbreviates: dose: 400.0 mg/kg/injection, schedule: Q01DX001 (ip), vehicle: saline with Tween-80.
The mark [4] stands for this setting: dose: 50.0 mg/kg/injection, schedule: Q01DX009 (ip), vehicle: saline.
Where [5] appears, read: dose: 100.0 mg/kg/injection, schedule: Q01DX009 (ip), vehicle: saline.
The mark [6] stands for this setting: dose: 200.0 mg/kg/injection, schedule: Q01DX009 (ip), vehicle: saline.
[7] abbreviates: dose: 100.0 mg/kg/injection, schedule: Q04DX002 (ip), vehicle: saline with Tween-80.
[8] abbreviates: dose: 60.0 mg/kg/injection, schedule: Q01DX005 (ip), vehicle: saline with Tween-80.
Setting [9] is: dose: 120.0 mg/kg/injection, schedule: Q01DX005 (ip), vehicle: saline with Tween-80.
Setting [10] is: dose: 240.0 mg/kg/injection, schedule: Q01DX005 (ip), vehicle: saline with Tween-80.

Regarding `Cn1c([N+](=O)[O-])cnc1-c1nc(/C=N/N2CCS(=O)(=O)CC2)cs1`, the T/C reads like this: (dose: 25.0 mg/kg/injection, schedule: Q01DX009 (ip), vehicle: saline with Tween-80) 96 % of control; (dose: 50.0 mg/kg/injection, schedule: Q01DX009 (ip), vehicle: saline with Tween-80) 96 % of control; (dose: 100.0 mg/kg/injection, schedule: Q01DX009 (ip), vehicle: saline with Tween-80) 90 % of control.
For `Nc1ccc(OCCNC(=O)c2ccc(S(=O)(=O)F)cc2)c(Cl)c1`, the T/C by setting is: under setting [1], 90 % of control; under setting [2], 100 % of control; under setting [3], 104 % of control.
For `CCOC(=O)CSc1ccc(C)cc1`, the T/C by setting is: (dose: 25.0 mg/kg/injection, schedule: Q01DX009 (ip), vehicle: saline) 105 % of control; under setting [4], 89 % of control; under setting [5], 96 % of control; under setting [6], 99 % of control.
Take `c1ccc(Cc2ncnc3nc[nH]c23)cc1`: the T/C (dose: 2.5 mg/kg/injection, schedule: Q01DX009 (ip), vehicle: saline with Tween-80) is 111 % of control; the T/C (dose: 5.0 mg/kg/injection, schedule: Q01DX009 (ip), vehicle: saline with Tween-80) was 111 % of control; the T/C (dose: 10.0 mg/kg/injection, schedule: Q01DX009 (ip), vehicle: saline with Tween-80) is 111 % of control; the T/C (dose: 20.0 mg/kg/injection, schedule: Q01DX009 (ip), vehicle: saline with Tween-80) is 105 % of control and 107 % of control and 110 % of control; the T/C (dose: 40.0 mg/kg/injection, schedule: Q01DX009 (ip), vehicle: saline with Tween-80) is 98 % of control and 103 % of control; the T/C (dose: 80.0 mg/kg/injection, schedule: Q01DX009 (ip), vehicle: saline with Tween-80) is 110 % of control and 111 % of control and 91 % of control. Further, under “dose: 160.0 mg/kg/injection, schedule: Q01DX009 (ip), vehicle: saline with Tween-80”, the T/C was 95 % of control.
Turning to `Cc1cc2nc3ccc(N=Nc4ccc(N(C)C)cc4)cc3n(-c3ccccc3)c-2cc1=N`, the T/C was 113 % of control and 118 % of control (dose: 0.39 mg/kg/injection, schedule: Q01DX009 (ip), vehicle: saline); 119 % of control (dose: 0.78 mg/kg/injection, schedule: Q01DX009 (ip), vehicle: saline).
Take `[I][Pt+2][I].[NH-]C1CCCC1[NH-]` (stereo unspecified): the T/C under setting [7] is 166 % of control.
Consider `CCCCN1COCO[C@H]2CCC[C@@H]21`, for which the T/C runs as follows: (dose: 100.0 mg/kg/injection, schedule: Q04DX002 (ip), vehicle: Klucel (hydroxypropylcellulose) (HPC)) 118 % of control; (dose: 200.0 mg/kg/injection, schedule: Q04DX002 (ip), vehicle: Klucel (hydroxypropylcellulose) (HPC)) 122 % of control.
Regarding `CC(=O)N(C(C)=O)c1cnc2c(nc3cc(C)ccn32)c1C`, the T/C is 92 % of control under setting [1] and 98 % of control under setting [2].
Regarding `Cc1ccc(NCC2CCCN3CCCCC23)c2c(=O)c3cc(O)ccc3sc12` (stereo unspecified), the T/C is 97 % of control under setting [7] and 102 % of control (dose: 200.0 mg/kg/injection, schedule: Q04DX002 (ip), vehicle: saline with Tween-80).
Regarding `CC(=O)O[C@@H]1CO[C@H]2O[C@H]3[C@@H](C(C=O)=C[C@H](O)[C@@H]4C5=C(C(C)C)CC[C@]5(C)CC[C@@]34C)[C@@]2(O)C1=O`, the T/C by setting is: (dose: 0.39 mg/kg/injection, schedule: Q01DX009 (ip), vehicle: Klucel (hydroxypropylcellulose) (HPC)) 94 % of control; (dose: 0.78 mg/kg/injection, schedule: Q01DX009 (ip), vehicle: Klucel (hydroxypropylcellulose) (HPC)) 104 % of control; (dose: 3.12 mg/kg/injection, schedule: Q01DX009 (ip), vehicle: Klucel (hydroxypropylcellulose) (HPC)) 107 % of control and 114 % of control; (dose: 6.25 mg/kg/injection, schedule: Q01DX009 (ip), vehicle: Klucel (hydroxypropylcellulose) (HPC)) 115 % of control and 121 % of control.
For the compound `Cc1ccc([N+](=O)[O-])cc1NC(=O)COc1cc(Cl)c(Cl)cc1Cl`, the T/C runs as follows: (dose: 100.0 mg/kg/injection, schedule: Q04DX003 (ip), vehicle: saline with Tween-80) 90 % of control; (dose: 200.0 mg/kg/injection, schedule: Q04DX003 (ip), vehicle: saline with Tween-80) 90 % of control; (dose: 400.0 mg/kg/injection, schedule: Q04DX003 (ip), vehicle: saline with Tween-80) 95 % of control.
With `O=C1OCC=C1Sc1ccccc1`, the T/C runs as follows: under setting [8], 106 % of control; under setting [9], 108 % of control.
Consider `CC(C)OP(=S)(S)OC(C)C`, for which the T/C is 114 % of control under setting [4], 118 % of control under setting [5] and 97 % of control under setting [6].
Take `COc1ccc2c(NCCCCCCCCCCNc3c4ccccc4nc4cc(OC)ccc34)c3ccccc3nc2c1`: the T/C is, setting by setting: (dose: 2.5 mg/kg/injection, schedule: Q01DX009 (ip), vehicle: other) 153 % of control; (dose: 5.0 mg/kg/injection, schedule: Q01DX009 (ip), vehicle: other) 155 % of control.
`C[Si](C)(C)CN=P(c1ccccc1)(c1ccccc1)c1ccccc1`: the T/C reads like this: under setting [8], 102 % of control; under setting [9], 103 % of control; under setting [10], 105 % of control.
With `CC(C)N(C(C)C)p1n(C(C)(C)C)n1C(C)(C)C`, the T/C is 108 % of control (dose: 12.5 mg/kg/injection, schedule: Q01DX005 (ip), vehicle: Klucel (hydroxypropylcellulose) (HPC)); 117 % of control (dose: 25.0 mg/kg/injection, schedule: Q01DX005 (ip), vehicle: Klucel (hydroxypropylcellulose) (HPC)); 110 % of control (dose: 50.0 mg/kg/injection, schedule: Q01DX005 (ip), vehicle: Klucel (hydroxypropylcellulose) (HPC)).
`COc1cccc2c1C(=O)c1c(O)c3c(c(O)c1C2=O)CC(O)(c1csc(-c2ccccc2)n1)CC3O` (stereo unspecified): the T/C by setting is: (dose: 1.56 mg/kg/injection, schedule: Q01DX009 (ip), vehicle: water) 106 % of control; (dose: 3.13 mg/kg/injection, schedule: Q01DX009 (ip), vehicle: water) 100 % of control; (dose: 6.25 mg/kg/injection, schedule: Q01DX009 (ip), vehicle: water) 109 % of control; (dose: 12.5 mg/kg/injection, schedule: Q01DX009 (ip), vehicle: water) 109 % of control; (dose: 25.0 mg/kg/injection, schedule: Q01DX009 (ip), vehicle: water) 103 % of control; (dose: 50.0 mg/kg/injection, schedule: Q01DX009 (ip), vehicle: water) 108 % of control.
On to `CCn1c(C)cc(=NC(=O)c2ccccc2O)n1-c1ccccc1`, for which the T/C is 103 % of control under setting [1], 106 % of control under setting [2] and 102 % of control under setting [3].
On to `CNC(=O)C1OC(n2cnc3c(N)ncnc32)C(O)C1O` (stereo unspecified), for which the T/C reads like this: (dose: 0.78 mg/kg/injection, schedule: Q01DX005 (ip), vehicle: saline with Tween-80) 109 % of control and 110 % of control and 120 % of control; (dose: 1.56 mg/kg/injection, schedule: Q01DX005 (ip), vehicle: saline with Tween-80) 113 % of control and 114 % of control and 116 % of control; (dose: 3.13 mg/kg/injection, schedule: Q01DX005 (ip), vehicle: saline with Tween-80) 117 % of control.
Consider `CC(=O)[O][Ge]([c]1ccccc1)([c]1ccccc1)[c]1ccccc1`, for which the T/C (dose: 50.0 mg/kg/injection, schedule: Q01DX009 (ip), vehicle: Klucel (hydroxypropylcellulose) (HPC)) is 107 % of control; the T/C (dose: 100.0 mg/kg/injection, schedule: Q01DX009 (ip), vehicle: Klucel (hydroxypropylcellulose) (HPC)) is 107 % of control; the T/C (dose: 200.0 mg/kg/injection, schedule: Q01DX009 (ip), vehicle: Klucel (hydroxypropylcellulose) (HPC)) was 107 % of control; the T/C (dose: 400.0 mg/kg/injection, schedule: Q01DX009 (ip), vehicle: Klucel (hydroxypropylcellulose) (HPC)) was 96 % of control.
Take `Cc1cccc(C)c1NC(=O)CCC(=O)CC(=O)c1ccncc1`: the T/C reads like this: under setting [8], 103 % of control; under setting [9], 105 % of control; under setting [10], 101 % of control.
`O=S(=O)(c1ccccn1)c1nc2ccccc2s1`: the T/C was 94 % of control under setting [8], 90 % of control under setting [9] and 94 % of control under setting [10].
Take `CC(C)COc1cccc2[oH+]c(C(=O)[O-])cc(=O)c12.CC(C)COc1cccc2[oH+]c(C(=O)[O-])cc(=O)c12.[Cu+2]`: the T/C was 104 % of control (dose: 12.5 mg/kg/injection, schedule: Q04DX002 (ip), vehicle: saline with Tween-80); 95 % of control (dose: 25.0 mg/kg/injection, schedule: Q04DX002 (ip), vehicle: saline with Tween-80); 94 % of control (dose: 50.0 mg/kg/injection, schedule: Q04DX002 (ip), vehicle: saline with Tween-80).
